According to patent US11420973B2, “Amide substituted indole compounds useful as TLR inhibitors” (BRISTOL-MYERS SQUIBB COMPANY, priority 2017, dated 2022):

What was measured:
human TLR9 = human TLR9 (Homo sapiens (Human), UniProt Q9NR96); assay: TLR9 inhibition reporter assay (HEK-Blue SEAP reporter, ODN2006 stimulation); conditions: read-out: TLR9 IC50; HEK-Blue cells overexpressing human TLR9, ODN2006 5 nM, SEAP reporter;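 note: SEAP reporter under IFN-β minimal promoter with five NF-κB and AP-1 sites, 22 h incubation, compounds 0.05 nM–50 µM, inhibition relative to agonist plus DMSO versus known inhibitor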
Sequence of human TLR9 (Q9NR96 26-1032): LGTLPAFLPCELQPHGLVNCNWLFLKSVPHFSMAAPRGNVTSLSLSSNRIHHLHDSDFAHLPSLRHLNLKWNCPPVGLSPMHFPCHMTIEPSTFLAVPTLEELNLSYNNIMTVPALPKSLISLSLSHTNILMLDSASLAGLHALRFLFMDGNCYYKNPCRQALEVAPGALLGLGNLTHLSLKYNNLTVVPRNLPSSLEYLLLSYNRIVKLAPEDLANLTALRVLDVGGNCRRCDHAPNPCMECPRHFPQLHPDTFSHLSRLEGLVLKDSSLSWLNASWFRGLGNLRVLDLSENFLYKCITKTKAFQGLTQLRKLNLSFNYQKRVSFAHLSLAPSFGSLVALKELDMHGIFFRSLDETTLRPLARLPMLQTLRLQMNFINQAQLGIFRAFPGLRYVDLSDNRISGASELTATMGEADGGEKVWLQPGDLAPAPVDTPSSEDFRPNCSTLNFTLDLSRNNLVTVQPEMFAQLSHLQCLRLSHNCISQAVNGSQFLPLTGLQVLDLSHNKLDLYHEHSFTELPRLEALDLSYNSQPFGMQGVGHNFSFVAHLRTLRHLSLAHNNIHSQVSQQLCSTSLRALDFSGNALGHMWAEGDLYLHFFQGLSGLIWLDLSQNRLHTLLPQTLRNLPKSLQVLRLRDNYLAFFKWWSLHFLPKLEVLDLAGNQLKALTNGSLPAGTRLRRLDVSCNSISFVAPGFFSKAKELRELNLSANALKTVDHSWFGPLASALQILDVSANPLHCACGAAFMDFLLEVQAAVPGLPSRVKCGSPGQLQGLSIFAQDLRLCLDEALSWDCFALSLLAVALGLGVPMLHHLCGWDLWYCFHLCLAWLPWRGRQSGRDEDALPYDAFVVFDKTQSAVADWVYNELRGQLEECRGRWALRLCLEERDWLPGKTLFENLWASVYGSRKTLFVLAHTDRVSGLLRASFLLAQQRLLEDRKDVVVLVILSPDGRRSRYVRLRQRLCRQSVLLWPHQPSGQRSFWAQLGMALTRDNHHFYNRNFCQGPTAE

human TLR7 = human TLR7 (Homo sapiens (Human), UniProt Q9NYK1); assay: TLR7 inhibition reporter assay (HEK-Blue SEAP reporter, gardiquimod stimulation); format: cell-based; conditions: HEK-Blue cells overexpressing human TLR7, gardiquimod 7.5 μM
Sequence of human TLR7 (Q9NYK1 27-1049): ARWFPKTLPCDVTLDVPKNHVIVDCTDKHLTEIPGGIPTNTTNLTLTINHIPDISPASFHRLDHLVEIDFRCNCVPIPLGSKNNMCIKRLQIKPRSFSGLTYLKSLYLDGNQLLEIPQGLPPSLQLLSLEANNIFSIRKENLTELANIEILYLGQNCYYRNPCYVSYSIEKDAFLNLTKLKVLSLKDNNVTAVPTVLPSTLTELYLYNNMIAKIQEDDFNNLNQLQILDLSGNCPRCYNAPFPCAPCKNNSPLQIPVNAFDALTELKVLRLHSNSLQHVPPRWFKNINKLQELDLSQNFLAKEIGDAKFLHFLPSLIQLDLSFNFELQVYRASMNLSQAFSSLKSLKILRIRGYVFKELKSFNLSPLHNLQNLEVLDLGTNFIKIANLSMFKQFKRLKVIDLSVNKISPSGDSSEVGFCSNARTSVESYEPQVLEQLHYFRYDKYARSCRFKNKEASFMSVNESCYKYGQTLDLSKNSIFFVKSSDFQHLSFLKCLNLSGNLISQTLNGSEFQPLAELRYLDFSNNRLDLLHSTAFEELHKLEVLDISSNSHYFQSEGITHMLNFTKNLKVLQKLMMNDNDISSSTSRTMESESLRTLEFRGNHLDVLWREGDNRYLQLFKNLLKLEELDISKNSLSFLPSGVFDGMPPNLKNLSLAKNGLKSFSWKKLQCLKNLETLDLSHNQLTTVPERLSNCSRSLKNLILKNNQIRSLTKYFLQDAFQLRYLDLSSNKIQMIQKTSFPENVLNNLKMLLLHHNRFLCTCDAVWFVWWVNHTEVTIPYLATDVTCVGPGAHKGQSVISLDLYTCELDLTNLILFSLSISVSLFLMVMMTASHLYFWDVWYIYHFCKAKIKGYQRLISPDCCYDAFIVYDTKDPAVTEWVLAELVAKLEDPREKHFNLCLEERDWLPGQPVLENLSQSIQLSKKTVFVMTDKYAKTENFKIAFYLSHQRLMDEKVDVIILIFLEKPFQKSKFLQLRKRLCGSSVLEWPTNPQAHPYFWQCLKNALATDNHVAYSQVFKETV

human TLR8 = human TLR8 (Homo sapiens (Human), UniProt Q9NR97); assay: TLR8 inhibition reporter assay (HEK-Blue SEAP reporter, R848 stimulation); conditions: read-out: TLR8 IC50; HEK-Blue cells overexpressing human TLR8, R848 15.9 μM, SEAP reporter;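 note: SEAP driven by IFN-β minimal promoter with NF-κB and AP-1 sites, 22 h incubation, compounds 0.05 nM–50 µM, inhibition scaled between agonist plus DMSO and reference inhibitor wells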
Sequence of human TLR8 (Q9NR97 27-1041): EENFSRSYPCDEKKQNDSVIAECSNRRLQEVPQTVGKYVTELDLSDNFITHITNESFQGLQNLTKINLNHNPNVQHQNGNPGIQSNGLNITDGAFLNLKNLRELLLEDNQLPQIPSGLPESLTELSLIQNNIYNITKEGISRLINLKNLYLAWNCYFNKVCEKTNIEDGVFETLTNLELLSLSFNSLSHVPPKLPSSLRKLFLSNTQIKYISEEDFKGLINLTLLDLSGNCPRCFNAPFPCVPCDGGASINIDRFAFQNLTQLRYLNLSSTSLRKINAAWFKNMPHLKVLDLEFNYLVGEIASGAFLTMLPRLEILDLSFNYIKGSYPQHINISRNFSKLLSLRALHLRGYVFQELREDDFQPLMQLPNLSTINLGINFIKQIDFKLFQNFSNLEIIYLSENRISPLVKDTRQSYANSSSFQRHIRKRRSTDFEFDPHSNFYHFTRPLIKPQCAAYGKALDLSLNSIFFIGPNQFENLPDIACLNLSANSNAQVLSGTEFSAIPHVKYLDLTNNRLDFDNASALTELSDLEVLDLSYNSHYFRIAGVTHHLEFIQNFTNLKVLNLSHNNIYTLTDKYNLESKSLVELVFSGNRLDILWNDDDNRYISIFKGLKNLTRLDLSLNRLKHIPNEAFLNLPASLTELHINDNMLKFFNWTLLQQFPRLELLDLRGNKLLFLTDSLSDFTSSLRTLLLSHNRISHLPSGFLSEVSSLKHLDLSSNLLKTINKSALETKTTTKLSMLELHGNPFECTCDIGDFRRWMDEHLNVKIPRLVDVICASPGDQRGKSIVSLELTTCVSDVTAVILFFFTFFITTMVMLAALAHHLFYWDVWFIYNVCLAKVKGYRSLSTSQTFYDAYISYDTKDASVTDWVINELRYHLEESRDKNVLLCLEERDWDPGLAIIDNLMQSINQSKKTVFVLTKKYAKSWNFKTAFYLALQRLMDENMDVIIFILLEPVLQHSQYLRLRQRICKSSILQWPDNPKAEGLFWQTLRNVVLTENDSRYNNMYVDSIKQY

Q: For Cc1cc(-c2[nH]c3ccc(C(C)C(=O)NC4CCC(N)CC4)cc3c2C(C)C)ccn1 (stereo not drawn) [Example 217, N-(4-aminocyclohexyl)-2-(3-isopropyl-2-(2-methylpyridin-4-yl)-1H-indol-5-yl)propanamide], which IC50 (human TLR9) is on record?
A: 999 nM

Q: And the IC50 (human TLR7)?
A: 167 nM

Q: And the IC50 (human TLR8)?
A: 316 nM

Q: Which IC50 (human TLR9) does the source give for Cc1cc(-c2[nH]c3ccc(C(C)C(=O)NC4CCCC(N)C4)cc3c2C(C)C)ccn1 (stereo not drawn) [Example 218, N-(3-aminocyclohexyl)-2-(3-isopropyl-2-(2-methylpyridin-4-yl)-1H-indol-5-yl)propanamide] here?
A: 1400 nM

Q: What about the IC50 (human TLR7) of the same compound?
A: 803 nM

Q: And the IC50 (human TLR8)?
A: 1080 nM

Q: Cc1cc(-c2[nH]c3ccc(C(C)C(=O)NC4CCCC(N)C4)cc3c2C(C)C)ccn1 (stereo not drawn) [Example 219, N-(3-aminocyclohexyl)-2-(3-isopropyl-2-(2-methylpyridin-4-yl)-1H-indol-5-yl)propanamide] was tested. Which IC50 (human TLR9) did it give?
A: 1750 nM

Q: What about the IC50 (human TLR7) of the same compound?
A: 256 nM

Q: What about the IC50 (human TLR8) of the same compound?
A: 182 nM

Q: Cc1c(-c2[nH]c3ccc(C(=O)N(C)CCN(C)C)cc3c2C(C)C)cn(C)c(=O)c1Cl [Example 222, 2-(5-chloro-1,4-dimethyl-6-oxo-1,6-dihydropyridin-3-yl)-N-(2-(dimethylamino)ethyl)-3-isopropyl-N-methyl-1H-indole-5-carboxamide] was tested. Which IC50 (human TLR9) did it give?
A: 6920 nM

Q: And the IC50 (human TLR7)?
A: 22 nM

Q: And the IC50 (human TLR8)?
A: 10 nM
